The values below are quoted from earlier work in patent publication US20140315870A1, “COMPOSITION COMPRISING A GLUCOCORTICOID AND A THIAZOLIDINEDIONE FOR INDUCING COMPELTE ADIPOGENIC DIFFERENTIATION OF MAMMALIAN STEM CELLS” (UNIVERSIDAD DEL DESARROLLO, priority 2011, published 2014).

For the series the following is noted: chronic consumption in humans.

Turning to `CN(CCOc1ccc(CC2SC(=O)NC2=O)cc1)c1ccccn1` (stereo not shown) [rosiglitazone], the “increase in the chance for cardiovascular accidents” value is given as 50%.
